Laboratory results as given in patent US20250084069A1, “GERALEXIN AND USES THEREOF FOR THE TREATMENT OF RETINAL DEGENERATIVE DISEASES” (INSTITUT NATIONAL DE LA SANTÉ ET DE LA RECHERCHE MÉDICALE, priority 2022, published 2025).

Key:
[1] = tested on: cones of cone-enriched cultures from chicken embryo; experiment: Cone survival in cone-enriched cultures from chicken embryo (live/dead assay); type: cell-based
Source text: FIG. 1: Identification of an extract from Uvaria chamae protecting cones by high content screening of 800 extracts from 200 medicinal plants using cone-enriched cultures from chicken embryo. A. The set represents a total of 12,800 tests. a: methanol polyamide, b: ethyl acetate, c: depleted ethyl acetate, d: depleted methanol. The figure gives an overview of the screening. […] C. Chromatogram of the fractionation by HPLC of Uvaria chamae the fraction Ucac3. The eight fractions (Ucac3F 1-8) are indicated by grey/white shading. D. Test of the protective activity on cones of the Ucac3 fractions 1-8. E. Purification scheme. F. Chromatographic profile of purified Geralexin. G. Structure of Geralexin (C37H66O7).
(§1) The therapeutic molecule, the acetogenin Geralexin (C37H66O7) (FIG. 1G) was purified to homogeneity from 100 kg of leaves of Uvaria chamae, a medicinal plant. […] We have fractionated Uvaria chamae extract by 7 steps of chromatography and characterized the molecule that we called Geralexin (FIG. 1E). […] Uc acts as RdCVF by stimulating aerobic glycolysis. […] The hydrophobicity of acetogenins allows their penetration into cones where Geralexin could bind and activate aerobic glycolysis (FIG. 2F-H). We search for genes encoding glycolytic enzymes with an expression profile indicating possible function in photoreceptors in our own web database KBaSS. […] PFKFB2 is a bifunctional protein with a N-terminal kinase domain that converts fructose 6 phosphate (F6P) into fructose 2,6 biphosphate (F26BP), an allosteric activator of phosphofructokinase (PFK), which catalyzes the rate-limiting step of glycolysis. […] We have analyzed the metabolome of the cone-enriched cultures exposed to Uc with the platform MetaToul (Toulouse). […] Our hypothesis is that Geralexin could be a treatment, alone or in addition to other interventions for dry AMD by preventing cone outer segment shortening and maintaining central vision.

[2] = tested on: phosphofructokinase (PFK); experiment: Metabolomic analysis of cone-enriched cultures (MetaToul platform); type: cell-based, chicken; conditions: by metabolomic analysis
Source text: (§2) G6P: glucose-6-phosphate, F6P; fructose-6-phosphate, F16BP: fructose-1,6-biphosphate, G3P: glycerol-3-phosphate, 2/3PG: 2- and 3-phosphoglycerate and PEP: phosphoenol pyruvate,
as §1

PFKFB2 mRNA = PFKFB2 mRNA expression by cones of cone-enriched culture, quantitative RT-PCR; type: cell-based, chicken
Source text: as §2, §1

[3] = tested on: cones of rd1 retinal explants; experiment: Cone protection on cultured retinal explants of the rd1 mouse; type: cell-based
glucose uptake by cones = experiment: Uptake of NBDG (fluorescent deoxyglucose derivative) in cone-enriched cultured cells; type: cell-based, chicken
Description: FIG. 2: Geralexin protects cones by stimulating aerobic glycolysis. A. Analysis of the effect of cone cell morphology in cone-enriched cultures by Geralexin (UcaC3F8f3). Cells are labeled with calcein AM. […] C. […] G. Comparative analysis of the protection of Geralexin (Uc: G3) on cone-enriched cultures in 15 versus 30 mM glucose. H. Ratio Geralexin+/no Geralexin.
The therapeutic molecule, the acetogenin Geralexin (C37H66O7) (FIG. 1G) was purified to homogeneity from 100 kg of leaves of Uvaria chamae, a medicinal plant. […] We have fractionated Uvaria chamae extract by 7 steps of chromatography and characterized the molecule that we called Geralexin (FIG. 1E). […] Uc acts as RdCVF by stimulating aerobic glycolysis. […] The hydrophobicity of acetogenins allows their penetration into cones where Geralexin could bind and activate aerobic glycolysis (FIG. 2F-H). We search for genes encoding glycolytic enzymes with an expression profile indicating possible function in photoreceptors in our own web database KBaSS. […] PFKFB2 is a bifunctional protein with a N-terminal kinase domain that converts fructose 6 phosphate (F6P) into fructose 2,6 biphosphate (F26BP), an allosteric activator of phosphofructokinase (PFK), which catalyzes the rate-limiting step of glycolysis. […] We have analyzed the metabolome of the cone-enriched cultures exposed to Uc with the platform MetaToul (Toulouse). […]

For `CCCCCCCCCC1OC1C1CCC(/C=C\C=C\CCC(O)C(O)CCC(O)CCCCCCCCCCC(=O)O)O1` (stereo not shown) [Geralexin], the “protective effect on cones after silencing BSG1” value ([1]; cone-enriched culture after electroporation of a micro RNA targeting BSG1) was “Absence of reduction of the protective effect”, the “cone survival / protection of cones” value ([1]; cone-enriched cultures from chicken embryo) was “stimulates aerobic glycolysis and cone survival” and the “effect of oxamate on the cone survival effect” value ([1]; cone-enriched cultures, with lactate dehydrogenase inhibitor oxamate) was “Reduction of the protection of cone”. For the same molecule, the “phosphofructokinase (PFK) activity” value [2] was “Increase phosphofructokinase (PFK) activity”, the “expression of PFKFB2 mRNA” value (PFKFB2 mRNA) was “Increase expression of PFKFB2 mRNA” and the “protection of cones / cone survival” value [3] was “Protection of cones”. The “glucose (NBDG) uptake by cones” value (glucose uptake by cones) was “Increase of the uptake of NBDG”.
